What was measured:
PKA = PKA inhibitor test in ECIS/TER assay (HPAEC); format: cell-based, human; details: H-89 pretreatment 30 min, then 50 μM β-NAD
Source text: (§1) The barrier properties of endothelial cells monolayers were characterized using a highly sensitive electrical cell-substrate impedance sensing (ECIS) instrument to measure transendothelial electrical resistance (TER) as described (Birukova et al., 2004a. Microvasc Res 67(1):64-77; Kolosova et al., 2005, Circ Res 97(2):115-124). The TER data was normalized to the initial voltage.
To elucidate the signaling pathways involved in β-NAD-induced HPAEC TER increase, the cAMP-activated protein kinase A (PKA) and the nucleotide exchange protein directly activated by cAMP (EPAC) pathways were examined. Since activation of P2Y11 receptors may lead to the Gas-mediated pathway including direct stimulation of adenylate cyclase, elevation of cAMP levels and cAMP-dependent activation of PKA, a simple inhibitory test was performed to confirm an activation of PKA and its participation in β-NAD-induced HPAEC barrier enhancement. For this test, H-89, an inhibitor of PKA activity, was used in ECIS experiments. HPAEC were pre-treated with H-89 for 30 min and then challenged with β-NAD and the effect of β-NAD-mediated barrier enhancement was determined using TER measurement.

P2Y1 receptor = biological target: T1, P2Y1 receptor (Homo sapiens, UniProt P47900); experiment: P2Y1 receptor antagonist study (TER, HPAEC); format: cell-based; parameters: dose or concentration left out as unconfirmed; details: MRS2279 pretreatment 30 min, then b-NAD
T1 construct: To deplete the mRNA content of endogenous P2Y1, P2Y11 or EPAC1; endogenous in cells; host or cells: HPAEC (human pulmonary artery endothelial cells)
T1 sequence (P47900 whole entry): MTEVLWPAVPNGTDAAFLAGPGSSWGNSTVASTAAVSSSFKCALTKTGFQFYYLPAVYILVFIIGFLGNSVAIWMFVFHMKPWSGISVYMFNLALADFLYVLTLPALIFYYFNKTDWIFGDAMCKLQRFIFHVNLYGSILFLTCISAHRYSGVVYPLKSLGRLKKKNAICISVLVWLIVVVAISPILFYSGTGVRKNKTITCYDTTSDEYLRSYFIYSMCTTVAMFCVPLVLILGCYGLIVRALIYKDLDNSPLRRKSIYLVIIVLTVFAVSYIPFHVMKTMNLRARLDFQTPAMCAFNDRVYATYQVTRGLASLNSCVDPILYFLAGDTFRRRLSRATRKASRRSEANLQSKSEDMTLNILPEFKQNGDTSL
Protocol: as §1
(§2) HPAEC were pretreated with receptor-specific antagonists, MRS2279 or NF157, for 30 min, and then challenged with […] b-NAD. TER was registered throughout to examine the barrier enhancement induced by b-NAD in the presence or absence of the antagonists.

HPAEC monolayers = experiment: Transendothelial electrical resistance (TER) by ECIS in HPAEC monolayers; format: cell-based, human; details: for TER of HPAEC monolayers after cytoskeleton-disrupting agent: agent alone, pretreatment 30 min
Protocol: Human pulmonary artery endothial cells (HPAEC) and EBM-2 complete medium were purchased from Lonza (Allendale, N.J.). HPAEC were cultured according to the manufacturer's protocol and utilized at early (3-6) passages.
as §1

LPS-induced ALI in mice = experiment: Evans Blue Dye-albumin (EBD) lung permeability; format: in vivo; details: LPS alone treated mice; vehicle 4.57
Protocol: Mice were anesthetized with ketamine (150 mg/kg) and acetylpromazine (15 mg/kg) intraperitoneally (i.p.) before the exposure of the trachea via neck incision and intubation with 20-guage catheter and the right internal jugular vein was exposed via right chest incision for PBS or b-NAD installation. The mice were randomly divided into groups. LPS or sterile saline was instilled intratracheally (i.t.) via a 20-gauge catheter. Simultaneously, mice received either b-NAD (5.4 mg/kg, equivalent to final calculated plasma concentration […] or PBS in the control group intravenously (i.v.) through the internal jugular vein (IJ). The animals were allowed to recover for 18 hr. EBD was given through the IJ 2 hr prior to termination of the experiment. At termination, bronchoalveolar lavage (BAL) was collected. BAL was 1ml of 10% HBSS through the endotracheal catheter immediately on sacrifice with aspiration. BAL was immediately centrifuged and processed. After the BAL, ethylenediaminetetraacetic acid (EDTA) was used to flush the lungs of blood via the right heart ventricle and the lungs were then harvested. BAL and lungs were collected and stored at −70° C. for evaluation of lung injury.
Measurement of EBD concentration in the lungs was performed by injection of EBD (20 mg/kg) into the right internal jugular vein 2 hr before the termination of the experiment to assess the vascular leak. Lungs free of blood were weighed and snap frozen in liquid nitrogen. The left lung was weighed and homogenized, then incubated with two volumes of formamide (18 hr, 60° C.) and centrifuged (5000 g, 30 min, 20° C.). The extravasated EBD concentration (mg/g, lung) in the lung homogenate was calculated against a standard curve. In a separate experiment the EBD was injected into the right internal jugular vein as described above at 2 hrs prior to termination of the experiment and the left lung gross anatomy view was photographed with a Leica NCL150 Camera.

[1] = system: LPS-induced mortality in mice; experiment: LPS-induced mortality / survival; format: in vivo; details: LPS alone, within four days
Protocol: Mice were injected with β-NAD (100 mg/kg, i.p) or vehicle (saline, i.p) 10 min after LPS (20 mg/kg, i.p) challenge. As a treatment strategy, β-NAD was given twice a day (i.p) for 4 days. […]

P2Y11 receptor = biological target: T2, P2Y11 receptor (Homo sapiens, UniProt Q96G91); experiment: P2Y11 receptor antagonist study (TER, HPAEC); format: cell-based; details: 1 mM NF157 pretreatment 30 min, then b-NAD
T2 construct: To deplete the mRNA content of endogenous P2Y1, P2Y11 or EPAC1; endogenous in cells; host or cells: HPAEC (human pulmonary artery endothelial cells)
T2 sequence (Q96G91 1-374): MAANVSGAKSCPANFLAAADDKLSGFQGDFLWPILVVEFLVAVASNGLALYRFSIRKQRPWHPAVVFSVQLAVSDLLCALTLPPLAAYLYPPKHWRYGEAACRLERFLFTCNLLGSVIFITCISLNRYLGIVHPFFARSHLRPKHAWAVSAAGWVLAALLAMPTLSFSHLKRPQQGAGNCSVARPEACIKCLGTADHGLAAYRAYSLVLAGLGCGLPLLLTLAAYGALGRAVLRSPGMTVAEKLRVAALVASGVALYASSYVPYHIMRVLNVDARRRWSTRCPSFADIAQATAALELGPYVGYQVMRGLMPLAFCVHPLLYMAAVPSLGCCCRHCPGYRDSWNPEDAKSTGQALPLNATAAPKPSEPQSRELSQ
Protocol: as §1, §2

For `O=S(=O)(NCCNC/C=C/c1ccc(Br)cc1)c1cccc2cnccc12` [H-89], the “effect of PKA inhibitor on β-NAD-induced TER increase” value (PKA) was “attenuated the β-NAD-induced HPAEC TER increase”.

With `CNc1nc(Cl)nc2c1ncn2[C@H]1C[C@@H](OP(=O)(O)O)[C@]2(COP(=O)(O)O)C[C@H]12` [MRS2279] the “effect of P2Y1 antagonist on β-NAD-induced TER increase” value (P2Y1 receptor) was “attenuated the β-NAD-induced TER increase”.

In the case of `COC(=O)Nc1nc2ccc(C(=O)c3cccs3)cc2[nH]1` [nocodazole, reference compound], the “TER of HPAEC monolayers after cytoskeleton-disrupting agent” value (HPAEC monolayers) is reported as “compromises endothelial cell barrier integrity”.

With pneumolysin [PLY, reference compound] the “decrease in TER from the baseline” value (HPAEC monolayers; PLY alone (125 ng/ml)) was roughly 80%.

`C=C1[C@@H](C)[C@H]2[C@H](Cc3ccccc3)NC(=O)[C@]23OC(=O)/C=C/[C@H](O)CCC[C@@H](C)C/C=C/[C@H]3[C@@H]1O` [cytochalasin B, reference compound] was tested, and the “TER of HPAEC monolayers after cytoskeleton-disrupting agent” value (HPAEC monolayers) was “produced a prompt attenuation in TER”.

In the case of “lipopolysaccharide [LPS, reference compound]”, the “EBD-albumin in lung (average)” value (LPS-induced ALI in mice) is reported as 16.81 µg/g, the “decrease in TER from the baseline” value (HPAEC monolayers; LPS (100 ng/ml) alone) is reported as roughly 60% and the mortality [1] is reported as 100%.

`O=C(Nc1cccc(C(=O)Nc2cc(C(=O)Nc3ccc(S(=O)(=O)O)c4cc(S(=O)(=O)O)cc(S(=O)(=O)O)c34)ccc2F)c1)Nc1cccc(C(=O)Nc2cc(C(=O)Nc3ccc(S(=O)(=O)O)c4cc(S(=O)(=O)O)cc(S(=O)(=O)O)c34)ccc2F)c1` [NF157] was tested, and the “effect of P2Y11 antagonist on β-NAD-induced TER increase” value (P2Y11 receptor) was “attenuated the β-NAD-induced TER increase more significantly”.
